Earlier results in article PMC10247525 (Colloids and surfaces. B, Biointerfaces, 2023).
≈ marks a conversion by molar mass, not a printed value. Where “and” joins values, the source holds several entries; their conditions need not be identical. Identical values can stand only once.

Columns and labels:
[1] = cited from earlier work
[2] = cited from earlier work; remark: listed apart in the source
[3] = cited from earlier work; remark: listed apart in the source

In the case of `O=c1[nH]cc(F)c(=O)[nH]1` [5-Fluorouracil], the solubility in water [1] is given as 12.5 mg/ml and 96 mM and the solubility in methanol [2] is given as 18 mg/mL (≈ 138 mM).
For `COc1cccc2c1C(=O)c1c(O)c3c(c(O)c1C2=O)C[C@@](O)(C(=O)CO)C[C@@H]3O[C@H]1C[C@H](N)[C@H](O)[C@H](C)O1` [Doxorubicin], the solubility in water [1] is given as 52 mg/ml and 90 mM and the solubility in methanol [2] is given as “sparingly”.
For `CC(=O)O[C@H]1C(=O)[C@@]2(C)[C@H]([C@H](OC(=O)c3ccccc3)[C@]3(O)C[C@H](OC(=O)[C@H](O)[C@@H](NC(=O)c4ccccc4)c4ccccc4)C(C)=C1C3(C)C)[C@]1(OC(C)=O)CO[C@@H]1C[C@@H]2O` [Paclitaxel], the “logP (octanol/water)” value [3] is given as 4, the solubility in water [1] is given as “sparingly” and the solubility in methanol [2] is given as 50 mg/mL (≈ 58.6 mM).
